# The supplement of paper PMC10307832
# Key:
# Assay in all cases: relative viability (nuclei count vs DMSO), 5 days (fraction); higher = more cells survive
# MK-2206 + Trametinib = compound: NC1(c2ccc(-c3nc4ccn5c(=O)[nH]nc5c4cc3-c3ccccc3)cc2)CCC1 [MK-2206] + CC(=O)Nc1cccc(-n2c(=O)n(C3CC3)c(=O)c3c(Nc4ccc(I)cc4F)n(C)c(=O)c(C)c32)c1 [Trametinib] (partner 0.02 µM)
# Procedure, shortened: (§1)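 Lung cancer cell lines in 1536-well plates got either a single drug or a fixed anchor-drug dose together with five library-drug doses (not always all listed) in √10 steps, by pin tool, on the day after seeding. Nuclei were counted after 5 days, and relative viability is the treated-to-vehicle ratio of nuclei counts. Values are medians of duplicate plates.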
# MK-2206 + OSI-027 = compound: NC1(c2ccc(-c3nc4ccn5c(=O)[nH]nc5c4cc3-c3ccccc3)cc2)CCC1 [MK-2206] + COc1cccc2cc(-c3nc([C@H]4CC[C@H](C(=O)O)CC4)n4ncnc(N)c34)[nH]c12 [OSI-027] (partner 0.5 µM)
# Procedure, shortened: as §1
# MK-2206 + Lapatinib = compound: NC1(c2ccc(-c3nc4ccn5c(=O)[nH]nc5c4cc3-c3ccccc3)cc2)CCC1 [MK-2206] + CS(=O)(=O)CCNCc1ccc(-c2ccc3ncnc(Nc4ccc(OCc5cccc(F)c5)c(Cl)c4)c3c2)o1 [Lapatinib] (partner 2 µM)
# Procedure, shortened: as §1
# MK-2206 + Alpelisib = compound: NC1(c2ccc(-c3nc4ccn5c(=O)[nH]nc5c4cc3-c3ccccc3)cc2)CCC1 [MK-2206] + Cc1nc(NC(=O)N2CCC[C@H]2C(N)=O)sc1-c1ccnc(C(C)(C)C(F)(F)F)c1 [Alpelisib] (partner 2 µM)
# Procedure, shortened: as §1
# MK-2206 + Dasatinib = compound: NC1(c2ccc(-c3nc4ccn5c(=O)[nH]nc5c4cc3-c3ccccc3)cc2)CCC1 [MK-2206] + Cc1nc(Nc2ncc(C(=O)Nc3c(C)cccc3Cl)s2)cc(N2CCN(CCO)CC2)n1 [Dasatinib] (partner 0.075 µM)
# Procedure, shortened: as §1
Cell Line,relative viability (MK-2206 + Trametinib; first compound 0.01 µM),relative viability (MK-2206 + Trametinib; first compound 0.03162 µM),relative viability (MK-2206 + Trametinib; first compound 0.3162 µM),relative viability (MK-2206 + Trametinib; first compound 1 µM),relative viability (MK-2206 + OSI-027; first compound 0.01 µM),relative viability (MK-2206 + OSI-027; first compound 0.03162 µM),relative viability (MK-2206 + OSI-027; first compound 0.3162 µM),relative viability (MK-2206 + OSI-027; first compound 1 µM),relative viability (MK-2206 + Lapatinib; first compound 0.01 µM),relative viability (MK-2206 + Lapatinib; first compound 0.03162 µM),relative viability (MK-2206 + Lapatinib; first compound 0.3162 µM),relative viability (MK-2206 + Lapatinib; first compound 1 µM),relative viability (MK-2206 + Alpelisib; first compound 0.01 µM),relative viability (MK-2206 + Alpelisib; first compound 0.03162 µM),relative viability (MK-2206 + Alpelisib; first compound 0.3162 µM),relative viability (MK-2206 + Alpelisib; first compound 1 µM),relative viability (MK-2206 + Dasatinib; first compound 0.01 µM),relative viability (MK-2206 + Dasatinib; first compound 0.03162 µM),relative viability (MK-2206 + Dasatinib; first compound 0.3162 µM),relative viability (MK-2206 + Dasatinib; first compound 1 µM)
LXF-289,0.65,0.699,0.68,0.663,0.782,0.862,0.604,0.743,0.907,0.985,0.911,0.901,1.06,1.09,1.02,1,0.212,0.251,0.254,0.203
NCI-H23,0.267,0.342,0.345,0.299,0.646,0.503,0.455,0.337,0.982,0.98,1.16,1.1,0.705,0.805,0.784,0.779,0.808,0.845,0.787,0.423
NCI-H322M,0.475,0.505,0.495,0.546,0.484,0.49,0.386,0.377,0.599,0.634,0.604,0.68,0.864,0.79,0.732,0.701,0.258,0.268,0.288,0.284
NCI-H358,0.146,0.145,0.132,0.117,0.819,0.765,0.531,0.487,0.47,0.41,0.394,0.376,0.9,0.837,0.65,0.563,0.169,0.167,0.15,0.147
NCI-H460,0.154,0.193,0.0937,0.0745,0.642,0.521,0.321,0.455,0.914,1.3,0.914,0.95,0.481,0.419,0.256,0.231,0.417,0.579,0.37,0.338
NCI-H520,0.833,0.569,0.277,0.187,0.243,0.233,0.17,0.238,0.85,0.874,0.415,0.238,0.939,0.819,0.561,0.355,0.179,0.178,0.189,0.18
NCI-H596,0.728,0.756,0.713,0.603,0.706,0.887,0.591,0.41,1.12,1.11,0.912,0.684,0.518,0.623,0.401,0.473,0.669,0.662,0.577,0.505
NCI-H647,0.457,0.473,0.429,0.364,0.573,0.584,0.469,0.641,1.01,1.15,1.06,0.521,1.39,1.24,1.07,0.851,0.17,0.188,0.154,0.156
NCI-H650,0.981,0.98,1.03,0.991,0.476,0.509,0.417,0.415,0.985,1.07,0.874,0.721,1.09,1.15,1.11,0.983,0.448,0.442,0.453,0.326
NCI-H661,0.573,0.712,0.603,0.503,0.729,0.659,0.563,0.584,0.422,0.581,0.503,0.51,0.745,1.07,0.688,0.473,0.898,0.907,0.856,0.949
NCI-H727,0.402,0.382,0.388,0.37,0.479,0.615,0.537,0.52,0.873,1.05,0.856,0.513,0.636,0.571,0.404,0.456,0.408,0.328,0.394,0.433
NCI-H838,0.504,0.507,0.498,0.354,0.484,0.397,0.327,0.366,1.04,1.18,1.01,0.675,1.02,1.02,1.01,0.943,0.282,0.279,0.288,0.268
NCI-H1355,0.407,0.414,0.363,0.378,0.394,0.433,0.289,0.235,0.97,1.04,0.851,0.743,0.886,0.813,0.789,0.783,0.734,0.7,0.701,0.432
NCI-H1395,1.02,1.16,0.804,0.897,0.699,0.588,0.437,0.471,1.01,1.3,0.774,0.759,1.1,1.13,0.926,0.825,0.435,0.399,0.413,0.362
NCI-H1437,0.577,0.51,0.44,0.403,0.91,0.844,0.746,0.675,0.778,0.783,0.815,0.475,0.983,0.979,0.764,0.83,0.425,0.424,0.412,0.398
NCI-H1651,0.797,0.849,0.853,0.819,0.786,0.684,0.807,0.784,0.878,0.743,0.99,0.606,0.921,0.906,0.938,0.898,0.386,0.448,0.478,0.405
NCI-H1666,0.925,0.79,0.807,0.892,0.845,0.806,0.729,0.767,0.633,0.577,0.354,0.386,0.957,0.89,0.729,0.735,0.751,0.838,0.818,0.744
NCI-H1734,0.633,0.646,0.535,0.478,0.603,0.572,0.366,0.356,0.758,1.05,0.789,0.869,0.709,0.625,0.451,0.521,0.501,0.449,0.408,0.387
NCI-H1755,0.756,0.768,0.671,0.699,0.76,0.723,0.509,0.6,1.02,1.05,0.965,0.962,0.919,0.93,0.881,0.863,0.443,0.424,0.406,0.35
NCI-H1792,0.363,0.395,0.365,0.296,0.718,0.824,0.686,0.622,0.84,0.983,0.909,0.92,0.673,0.652,0.706,0.773,0.758,0.845,0.913,0.819
NCI-H1793,0.4,0.433,0.298,0.391,0.274,0.288,0.229,0.199,0.616,0.742,0.745,0.617,0.721,0.816,0.634,0.727,0.474,0.514,0.344,0.317
NCI-H1915,0.3,0.315,0.282,0.293,0.646,0.693,0.606,0.496,0.954,0.984,0.978,1.02,1.05,1.1,1.04,1.08,0.348,0.329,0.348,0.271
NCI-H1944,0.405,0.41,0.392,0.385,0.478,0.447,0.361,0.326,0.829,0.849,0.823,0.904,0.912,0.834,0.833,0.752,0.243,0.227,0.198,0.182
NCI-H1975,0.305,0.352,0.261,0.371,0.745,0.611,0.42,0.381,0.837,0.996,0.781,0.534,0.657,0.551,0.509,0.487,0.4,0.346,0.292,0.341
NCI-H1993,0.61,0.422,0.43,0.419,0.493,0.579,0.469,0.595,0.869,0.83,0.749,0.758,0.73,0.668,0.663,0.652,0.29,0.524,0.556,0.51
NCI-H2009,0.252,0.299,0.248,0.254,0.63,0.582,0.497,0.399,0.825,1.01,0.936,0.986,1.16,1.17,1.14,1.12,0.296,0.309,0.287,0.325
